Laboratory results from patent publication US8927559B2, “Quinazolinone-type compounds as CRTH2 antagonists” (Merck Sharp & Dohme Corp., priority 2010, dated 2015).

target: T1, CRTH2 receptor (hCRTH2) (Homo sapiens, UniProt Q9Y5Y4); experiment: Radioligand binding assay ([3H]PGD2 competition, membranes of HEK-hCRTH2 cell line); conditions: 3.0 nM [3H]PGD2, HEK-hCRTH2 membranes, 60 min, room temperature; read-out: Ki
T1 construct: expressed in transfected cells; host or cells: HEK cells (HEK-hCRTH2 cell line), membranes
T1 sequence (Q9Y5Y4 1-395): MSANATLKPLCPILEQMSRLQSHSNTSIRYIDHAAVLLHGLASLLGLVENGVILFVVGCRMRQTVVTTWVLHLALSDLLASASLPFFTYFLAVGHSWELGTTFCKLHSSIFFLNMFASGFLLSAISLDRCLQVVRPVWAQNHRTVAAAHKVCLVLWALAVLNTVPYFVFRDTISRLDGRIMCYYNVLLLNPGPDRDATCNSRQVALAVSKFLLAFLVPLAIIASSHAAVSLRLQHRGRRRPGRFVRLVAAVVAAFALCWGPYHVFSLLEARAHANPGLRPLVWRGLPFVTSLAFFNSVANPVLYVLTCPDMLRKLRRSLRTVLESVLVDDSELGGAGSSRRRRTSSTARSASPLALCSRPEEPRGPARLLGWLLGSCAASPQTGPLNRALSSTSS
Summary of the method: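 Membranes (8-20 μg protein) from HEK cells expressing human CRTH2 were incubated with [3H]PGD2 and competitor in 1% DMSO for 60 min at room temperature. Non-specific binding was defined with excess PGD2. Bound radioactivity was separated by filtration and counted by melt-on scintillation.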

| Ki | SMILES |
| --- | --- |
| ≤ 10 nM | O=C(O)CCCCc1nc2cc(-c3cc(COCc4ccc(F)cc4F)on3)ccc2c(=O)n1-c1ccc(F)cc1 [Example 272] |
| ≤ 10 nM | C[C@@H](OCc1cccc(F)c1)c1cc(-c2ccc3c(=O)n(-c4ccc(F)cc4)c(CCCCC(=O)O)nc3c2)no1 [Example 273] |
| 10 to 50 nM | C[C@@H](OCc1ccc(F)c(F)c1)c1cc(-c2ccc3c(=O)n(-c4ccc(F)cc4)c(CCCCC(=O)O)nc3c2)no1 [Example 274] |
| ≤ 10 nM | O=C(O)CCCCc1nc2cc(-c3cc(COCc4cc(F)ccc4F)on3)ccc2c(=O)n1-c1ccc(F)cc1 [Example 275] |
| ≤ 10 nM | O=C(O)CCCCc1nc2cc(-c3cc(COCc4cccc(F)c4)on3)ccc2c(=O)n1-c1ccc(F)cc1 [Example 276] |
| 10 to 50 nM | O=C(O)CCCCc1nc2cc(-c3cc(COCc4ccccc4)on3)ccc2c(=O)n1-c1ccc(F)cc1 [Example 277] |
| 10 to 50 nM | O=C(O)CCCCc1nc2cc(-c3cc(COCc4ccc(F)cc4)on3)ccc2c(=O)n1-c1ccc(F)cc1 [Example 278] |
| ≤ 10 nM | O=C(O)CCCCc1nc2cc(-c3cc(COCc4ccccc4F)on3)ccc2c(=O)n1-c1ccc(F)cc1 [Example 279] |
| 10 to 50 nM | O=C(O)CCCCc1nc2cc(-c3cc(COCc4ccc(-c5ccccc5)cc4)on3)ccc2c(=O)n1-c1ccc(F)cc1 [Example 280] |
| 10 to 50 nM | O=C(O)CCCCc1nc2cc(-c3cc(COCc4cccc(-c5ccccc5)c4)on3)ccc2c(=O)n1-c1ccc(F)cc1 [Example 281] |
| ≤ 10 nM | O=C(O)CCCCc1nc2cc(-c3cc(COCc4cccc(-c5ccccc5)c4)on3)ccc2c(=O)n1-c1ccc(F)cc1 [Example 282] |
| 10 to 50 nM | O=C(O)CCCCc1nc2cc(-c3cc(COCc4cccc5cccnc45)on3)ccc2c(=O)n1-c1ccc(F)cc1 [Example 283] |
| 10 to 50 nM | O=C(O)CCCCc1nc2cc(-c3cc(COCc4ccnc5ccccc45)on3)ccc2c(=O)n1-c1ccc(F)cc1 [Example 284] |
| ≤ 10 nM | C[C@@H]1C(c2ccc3c(=O)n(-c4ccc(F)cc4)c(CCCCC(=O)O)nc3c2)=NO[C@@H]1c1ccccc1 [Example 285] |
| ≤ 10 nM | C[C@H]1C(c2ccc3c(=O)n(-c4ccc(F)cc4)c(CCCCC(=O)O)nc3c2)=NO[C@@H]1c1ccccc1 [Example 286] |
| ≤ 10 nM | C[C@H]1ON=C(c2ccc3c(=O)n(-c4ccc(F)cc4)c(CCCCC(=O)O)nc3c2)[C@H]1c1ccccc1 [Example 287] |
| 10 to 50 nM | C[C@]1([C@H](O)c2ccc(F)cc2)CC(c2ccc3c(=O)n(-c4ccc(F)cc4)c(CCCCC(=O)O)nc3c2)=NO1 [Example 288] |
| ≤ 10 nM | C[C@@]1([C@H](O)c2ccc(F)cc2)CC(c2ccc3c(=O)n(-c4ccc(F)cc4)c(CCCCC(=O)O)nc3c2)=NO1 [Example 289] |
| ≤ 10 nM | C[C@]1([C@@H](O)c2ccc(F)cc2)CC(c2ccc3c(=O)n(-c4ccc(F)cc4)c(CCCCC(=O)O)nc3c2)=NO1 [Example 290] |
| 10 to 50 nM | C[C@@]1([C@@H](O)c2ccc(F)cc2)CC(c2ccc3c(=O)n(-c4ccc(F)cc4)c(CCCCC(=O)O)nc3c2)=NO1 [Example 291] |
| 10 to 50 nM | C[C@]1(Cc2ccc(F)cc2)CC(c2ccc3c(=O)n(-c4ccc(F)cc4)c(CCCCC(=O)O)nc3c2)=NO1 [Example 292] |
| 10 to 50 nM | C[C@@]1(Cc2ccc(F)cc2)CC(c2ccc3c(=O)n(-c4ccc(F)cc4)c(CCCCC(=O)O)nc3c2)=NO1 [Example 293] |
